{"source": "patent US20060293378A1", "about": "“Method of lowering intraocular pressure” (priority 2005, published 2006)", "system": "intraocular pressure", "assay": "Intraocular pressure in rabbits after injection of an aqueous suspension into the right eye, compared with untreated left eyes", "format": "in vivo", "settings": "suspension of 2 mg/mL compound with 7.5 mg/mL sodium carboxymethylcellulose injected into right eyes, dosages 60 μg, 100 μg and 140 μg, versus untreated left eyes, maintained over the 14 days of the test, FIGS. 1 to 3", "method": "An aqueous suspension was produced containing 2 mg/mL of compound 21 illustrated above together with 7.5 mg/mL of sodium carboxymethylcellulose.", "data": [{"smiles": "CC(C)OCc1ccc2c(c1)c1c3c(c4c(c1n2CCCOC(=O)CN(C)C)Cc1ccccc1-4)C(=O)NC3", "note": "[Compound 21]", "values": [{"measurement": "effect on intraocular pressure over time", "value": "significantly increased lowering of intraocular pressure"}]}]}
